Assay results: ChEMBL document CHEMBL6103592, “Discovery of novel thiazole-pleuromutilin derivatives with potent antibacterial activity” (Eur J Med Chem, 2025)
Converted amounts (≈) assume the structure as drawn. The source made the active and inactive calls. The rule behind the calls is not given here.

Legend:
[1] = system: Staphylococcus aureus; experiment: Antibacterial efficacy against methicillin-resistant Staphylococcus aureus ATCC 43300 infected in cyclophosphamide-induced neutropenic systemic infection Kunming mouse model assessed as reduction in bacterial load in lung at 20 mg/kg, iv pretreated with cyclophosphamide for 1 hr followed by compound addition and measured after 5 days; format: functional; conditions: time 5 day
[2] = system: Staphylococcus aureus; experiment: Antibacterial activity against methicillin-resistant Staphylococcus aureus ATCC 43300 assessed as inhibition of visible bacterial growth incubated for 24 hrs by CLSI based broth microdilution method; format: functional
[3] = system: Streptococcus agalactiae; experiment: Antibacterial activity against Streptococcus agalactiae assessed as inhibition of visible bacterial growth incubated for 24 hrs by CLSI based broth microdilution method; format: functional
[4] = system: Staphylococcus aureus; experiment: Bactericidal activity against methicillin-resistant Staphylococcus aureus ATCC 43300 at 1 times MIC incubated upto 24 hrs by time-kill assay; format: functional, organism-based
[5] = system: Staphylococcus aureus; experiment: Bactericidal activity against methicillin-resistant Staphylococcus aureus ATCC 43300 assessed as log reduction in bacterial count count at 6 times MIC incubated at 24 hrs by time-kill assay; format: functional
[6] = system: Staphylococcus aureus; experiment: Antibacterial activity against methicillin-resistant Staphylococcus aureus ATCC 43300 assessed as post antibiotic effect at 2 times MIC measured after 1 hr; format: functional
[7] = system: Staphylococcus aureus; experiment: Antibacterial activity against methicillin-resistant Staphylococcus aureus ATCC 43300 assessed as post antibiotic effect at 4 times MIC measured after 1 hr; format: functional
[8] = system: Staphylococcus aureus; experiment: Antibacterial activity against methicillin resistant Staphylococcus aureus; format: functional
[9] = system: Staphylococcus aureus; experiment: Antibacterial efficacy against methicillin-resistant Staphylococcus aureus ATCC 43300 infected in cyclophosphamide-induced neutropenic systemic infection Kunming mouse model assessed as reduction in bacterial load in kidney at 20 mg/kg, iv pretreated with cyclophosphamide for 1 hr followed by compound addition and measured after 5 days; format: functional, organism-based; conditions: time 5.0 day
[10] = system: HepG2; experiment: Cytotoxicity against human HepG2 cells assessed as cell viability at 200 micromol/L incubated for 24 hrs by CCK-8 assay relative to control; format: functional; conditions: HepG2, 24 h, dose 200 µmol/L, read-out: Activity
[11] = system: HepG2; experiment: Cytotoxicity against human HepG2 cells assessed as cell viability incubated for 24 hrs by CCK-8 assay; format: functional, cell-based; conditions: HepG2, 24 h
[12] = Acute toxicity in rat assessed as reduction in food intake at 2000 mg/kg, po measured at 24 hrs; format: organism-based; conditions: in vivo
[13] = Acute toxicity in rat assessed as reduction in water consumption at 2000 mg/kg, po measured at 24 hrs; format: organism-based; conditions: in vivo
[14] = Acute toxicity in rat assessed as body weight change at 2000 mg/kg, po measured at 24 hrs; format: organism-based; conditions: in vivo
[15] = Acute toxicity in rat assessed as pathological changes in heart at 2000 mg/kg, po measured for 14 days; format: organism-based; conditions: in vivo, 336 h, time 14 day
[16] = Acute toxicity in rat assessed as pathological changes in liver at 2000 mg/kg, po measured for 14 days; format: organism-based; conditions: in vivo, 336 h, time 14 day
[17] = Acute toxicity in rat assessed as pathological changes in spleen at 2000 mg/kg, po measured for 14 days; format: organism-based; conditions: in vivo, 336 h, time 14 day
[18] = Acute toxicity in rat assessed as pathological changes in kidney at 2000 mg/kg, po measured for 14 days; format: organism-based; conditions: in vivo, 336 h, time 14 day
[19] = Acute toxicity in rat assessed as degeneration of endometrial epithelial cells at 2000 mg/kg, po measured for 14 days by H and E staining based analysis; format: organism-based; conditions: in vivo, 336 h, time 14 day
[20] = Acute toxicity in rat assessed as necrosis of glandular epithelial cells at 2000 mg/kg, po measured for 14 days by H and E staining based analysis; format: organism-based; conditions: in vivo, 336 h, time 14 day
[21] = Acute toxicity in rat assessed as absolute heart weight at 2000 mg/kg, po measured for 7 days (reference value: 0.77 +/- 0.12 g); format: organism-based; conditions: in vivo, 168 h, time 7 day
[22] = Acute toxicity in rat assessed as absolute uterus weight at 2000 mg/kg, po measured for 7 days (reference value: 0.52 +/- 0.18 g); format: organism-based; conditions: in vivo, 168 h, time 7 day
[23] = Acute toxicity in rat assessed as absolute lung weight at 2000 mg/kg, po administered for 7 days followed by readministration after 7 days and measured at 14 days (reference value: 1.12 +/- 0.07 g); format: organism-based; conditions: in vivo, 336 h, time 14 day
[24] = Acute toxicity in rat assessed as relative spleen weight at 2000 mg/kg, po measured for 7 days (reference value: 0.27 +/- 0.02%); format: organism-based; conditions: in vivo, 168 h, time 7 day
[25] = Acute toxicity in rat assessed as relative lung weight at 2000 mg/kg, po measured for 7 days (reference value: 0.58 +/- 0.03%); format: organism-based; conditions: in vivo, 168 h, time 7 day
[26] = Acute toxicity in rat assessed as relative heart weight at 2000 mg/kg, po administered for 7 days followed by readministration after 7 days and measured at 14 days (reference value: 0.40 +/- 0.06 %); format: organism-based; conditions: in vivo, 336 h, time 14 day
[27] = Acute toxicity in rat assessed as relative liver weight at 2000 mg/kg, po administered for 7 days followed by readministration after 7 days and measured at 14 days (reference value: 4.36 +/- 0.23 %); format: organism-based; conditions: in vivo, 336 h, time 14 day
[28] = Acute toxicity in rat assessed as relative lung weight at 2000 mg/kg, po administered for 7 days followed by readministration after 7 days and measured at 14 days (reference value: 0.58 +/- 0.03 %); format: organism-based; conditions: in vivo, 336 h, time 14 day
[29] = Acute toxicity in rat assessed as relative kidney weight at 2000 mg/kg, po administered for 7 days followed by readministration after 7 days and measured at 14 days (reference value: 0.83 +/- 0.08%); format: organism-based; conditions: in vivo, 336 h, time 14 day
[30] = Acute toxicity in rat assessed as relative uterus weight at 2000 mg/kg, po administered for 7 days followed by readministration after 7 days and measured at 14 days (reference value: 0.27 +/- 0.09%); format: organism-based; conditions: in vivo, 336 h, time 14 day

## C=C[C@]1(C)C[C@@H](OC(=O)CSc2nc(OC(=O)c3ccc(C(C)(C)C)cc3)cs2)[C@]2(C)[C@H](C)CC[C@]3(CCC(=O)[C@H]32)[C@@H](C)[C@@H]1O
[1]
  Activity: 0.9 log10CFU
[2]
  MIC: 0.25 µg/mL (≈ 0.382 µM)
[3]
  MIC: 0.063 µg/mL (≈ 0.0963 µM)
[4]
  Activity: Active
[5]
  log(activity): 3.08
[6]
  PAE: 1.09 h
[7]
  PAE: 1.85 h
[8]
  MIC: 0.5 µg/mL (≈ 0.765 µM)
[9]
  Activity: inactive
[10]
  viability at 200 µM: 94.3%
[11]
  IC50: > 200 µM
[12]
  Activity: Non-toxic
[13]
  Activity: Non-toxic
[14]
  Activity: Non-toxic
[15]
  Activity: Non-toxic
[16]
  Activity: Non-toxic
[17]
  Activity: Non-toxic
[18]
  Activity: Non-toxic
[19]
  Activity: Non-toxic
[20]
  Activity: Non-toxic
[21]
  Activity: 0.75 g
[22]
  Activity: 0.52 g
[23]
  Activity: 1.28 g
[24]
  Activity: 0.28%
[25]
  Activity: 0.58%
[26]
  Activity: 0.36%
[27]
  Activity: 3.97%
[28]
  Activity: 0.59%
[29]
  Activity: 0.76%
[30]
  Activity: 0.23%
